Reference: PubChem BioAssay (NCI)
Values after ≈ are worked out from the molar mass of the structure shown. Values joined by “and” are separate entries in the source; they are usually repeats but may differ in a detail not shown here. Identical values can stand only once.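 These data come from cells grown in 96-well plates and exposed to compound for 48 hours at five concentrations. At the GI50, growth is halved. Definition used: TGI = concentration required for complete inhibition of growth.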

How the values were obtained:
Assay in all cases: inhibition of tumour cell growth, NCI panel, 48 h
MDA-MB-231 breast = system: MDA-MB-231 breast
DU-145 prostate = system: DU-145 prostate
DMS 114 small cell lung = system: DMS 114 small cell lung
DLD-1 colon = system: DLD-1 colon
XF 498 CNS = system: XF 498 CNS
MDA-N = system: MDA-N
RXF-631 renal = system: RXF-631 renal

## CCN1CCN(C(c2ccc(C(F)(F)F)cc2)c2ccc3cccnc3c2O)CC1 (stereo unspecified)
MDA-MB-231 breast
  GI50: 2.97 µM
  TGI: 25.3 µM
DU-145 prostate
  GI50: 5.56 µM
  TGI: 18.7 µM

## O=c1[nH]c2c(nc1NC13CC4CC(CC(C4)C1)C3)c(=O)oc1ccccc12
DMS 114 small cell lung
  TGI: > 100 µM
DLD-1 colon
  TGI: > 100 µM
XF 498 CNS
  TGI: > 100 µM

## O=C(CNc1ccc(Cl)cc1)Nc1ccc(-c2nc3ccccc3s2)cc1
MDA-MB-231 breast
  GI50: 3.67 µM
  TGI: 14.7 µM
DU-145 prostate
  GI50: 3.49 µM
  TGI: 11.7 µM

## COc1ccc(C(C)=O)cc1N1C(=O)C2C(C1=O)C1(c3ccccc3)C(=O)C2(c2ccccc2)C(c2ccc(C)cc2)=C1c1ccc(C)cc1 (stereo unspecified)
MDA-MB-231 breast
  GI50: 33.1 µM
  TGI: > 100 µM
DU-145 prostate
  GI50: > 100 µM
  TGI: > 100 µM

## CCN(CC)CCC(CNc1ccnc2cc(Cl)ccc12)c1ccc(OC)cc1 (stereo unspecified)
MDA-MB-231 breast
  GI50: 2.34 µM and 2.42 µM
  TGI: 11.2 µM and 10.9 µM
DU-145 prostate
  GI50: 21.9 µM and 26.7 µM
  TGI: > 100 µM

## C=C1C(=O)OC2CCN3CC=C(COC(=O)C(C)(O)C4(CO4)C1C)C23 (stereo unspecified)
MDA-MB-231 breast
  TGI: > 100 µM
MDA-N
  TGI: > 100 µM
DU-145 prostate
  TGI: > 100 µM

## S=C1NC2(CCCCCC2)NN1c1ccccc1
MDA-MB-231 breast
  TGI: > 100 µM
MDA-N
  TGI: > 100 µM
DMS 114 small cell lung
  TGI: > 100 µM
RXF-631 renal
  TGI: > 100 µM
DU-145 prostate
  TGI: > 100 µM
DLD-1 colon
  TGI: > 100 µM

## COc1cc(N(CCC#N)CCC#N)ccc1/C(N=Nc1ccc([N+](=O)[O-])cc1)=N/NC(=O)c1cc(Br)ccc1O
MDA-MB-231 breast
  GI50: 35.7 µg/mL
  TGI: 85.2 µg/mL
MDA-N
  GI50: 43.8 µg/mL (≈ 70.7 µM)
  TGI: 126 µg/mL
DU-145 prostate
  GI50: 30.3 µg/mL
  TGI: 70.9 µg/mL

## N#Cc1c(NN)n(C2OC(CO)C(O)C2O)c2ncnc(N)c12 (stereo unspecified)
MDA-MB-231 breast
  GI50: 0.284 µM
  TGI: > 24.1 µM
DU-145 prostate
  GI50: 0.0375 µM
  TGI: 6.26 µM

## CC(C)(C)CC(C)(C)c1cc2c(O)c(c1)Cc1cc(C(C)(C)CC(C)(C)C)cc(c1O)Cc1cc(C(C)(C)CC(C)(C)C)cc(c1O)Cc1cc(C(C)(C)CC(C)(C)C)cc(c1O)C2
DMS 114 small cell lung
  TGI: > 100 µM
RXF-631 renal
  TGI: > 100 µM
DLD-1 colon
  TGI: > 100 µM
XF 498 CNS
  TGI: > 100 µM

## CCCCC(C(=O)C(=O)NC1C2CC3CC(C2)CC1C3)C(=O)C(C)C (stereo unspecified)
DMS 114 small cell lung
  TGI: > 100 µM
RXF-631 renal
  TGI: > 100 µM
XF 498 CNS
  TGI: > 100 µM

## CCCCCCNC(=O)c1cc(NCc2cc(O)ccc2O)ccc1O
MDA-MB-231 breast
  GI50: 2.78 µM
  TGI: 10.4 µM
DU-145 prostate
  GI50: 15.2 µM
  TGI: 28.8 µM

## O=C1/C(=C/c2ccc(Br)cc2)COc2ccc(O)c(O)c21
MDA-MB-231 breast
  GI50: 0.682 µM
  TGI: 2.27 µM
DU-145 prostate
  GI50: 1.31 µM
  TGI: 2.9 µM

## S=C(Nc1ccccc1)N(/N=C/C=C/c1ccccc1)c1nnc(-c2ccccc2)c(-c2ccccc2)n1
DMS 114 small cell lung
  TGI: > 100 µM
RXF-631 renal
  TGI: > 100 µM
DLD-1 colon
  TGI: > 100 µM
XF 498 CNS
  TGI: > 100 µM

## COc1ccc(C2C(Cl)C(=O)N2n2cnc3ccccc3c2=O)cc1 (stereo unspecified)
DMS 114 small cell lung
  TGI: > 100 µM
DLD-1 colon
  TGI: > 100 µM
XF 498 CNS
  TGI: > 100 µM

## CCOC(=O)CCCn1c(SC)nc2[nH]cc(-c3ccccc3)c2c1=O
MDA-MB-231 breast
  GI50: 25.8 µM
  TGI: 66.7 µM
DU-145 prostate
  GI50: 17.1 µM
  TGI: > 100 µM

## COc1cc(C#CC(=O)OC/C=C/c2ccc3c(c2)OCO3)cc(OC)c1OC
MDA-MB-231 breast
  TGI: 79.4 µM
MDA-N
  TGI: 45 µM
DU-145 prostate
  TGI: > 100 µM

## O=C(OC(CNc1cc(=O)n(Cc2ccccc2)c(=O)n1Cc1ccccc1)CN1CCCC1)c1ccccc1 (stereo unspecified)
MDA-MB-231 breast
  GI50: 75.3 µM
  TGI: > 100 µM
DU-145 prostate
  GI50: 1.9 µM
  TGI: > 100 µM

## Cc1ccc(NC(=O)C(=O)C(C(=O)c2ccc3ccccc3c2)C2OC(=O)c3ccccc32)cc1C (stereo unspecified)
DMS 114 small cell lung
  TGI: 41.3 µM
DLD-1 colon
  TGI: 36.7 µM
XF 498 CNS
  TGI: 18.2 µM

## O=C1c2cccc(NCCCNCCO)c2C(=O)c2cccc(NCCCNCCO)c21
MDA-MB-231 breast
  TGI: 3.37 µM
MDA-N
  TGI: 3.23 µM
DMS 114 small cell lung
  GI50: 0.476 µM and 1.24 µM
  TGI: 1.92 µM and 4.77 µM
DU-145 prostate
  TGI: 7.44 µM
DLD-1 colon
  TGI: 12 µM and 6.25 µM
XF 498 CNS
  GI50: 0.827 µM and 2.41 µM
  TGI: 2.4 µM and 7.26 µM

## Cn1c2c(c3ccccc31)C1CCCCCCC1C1C(=O)OC(=O)C21 (stereo unspecified)
DMS 114 small cell lung
  TGI: 75.2 µM
RXF-631 renal
  TGI: > 100 µM
DLD-1 colon
  TGI: > 100 µM
XF 498 CNS
  TGI: 93.1 µM

## CCn1c(-c2nonc2N)nc2c(C#CC(C)(C)O)nc(OC[C@H](N)c3ccccc3)cc21
MDA-MB-231 breast
  GI50: 4.35 µM
  TGI: 8.83 µM
DU-145 prostate
  GI50: 3.26 µM
  TGI: 6.47 µM

## CC1(C)COC(c2cccnc2/C=N/O)=N1
RXF-631 renal
  TGI: > 100 µM
DLD-1 colon
  TGI: > 100 µM
XF 498 CNS
  TGI: > 100 µM

## CO/N=C/c1cc(OC)c(OC)c(OC)c1
DMS 114 small cell lung
  TGI: > 100 µM
RXF-631 renal
  TGI: > 100 µM
DLD-1 colon
  TGI: > 100 µM
XF 498 CNS
  TGI: > 100 µM

## COc1ccc2c3c([nH]c2c1[N+](=O)[O-])C(C)=NCC3
DMS 114 small cell lung
  TGI: > 100 µM
RXF-631 renal
  TGI: > 100 µM
DLD-1 colon
  TGI: > 100 µM

## C=CCCCCC/C=C\[C@H](O)C#CC#C/C=C/CO
MDA-MB-231 breast
  GI50: 14.5 µM
  TGI: 33.8 µM
DU-145 prostate
  GI50: 66.3 µM
  TGI: > 100 µM

## O=C(/C=C/c1ccccc1O)c1ccccc1O
DMS 114 small cell lung
  TGI: > 100 µM
DLD-1 colon
  TGI: > 100 µM

## N#Cc1nc(Nc2cccc3ccccc23)sc1N
DLD-1 colon
  TGI: > 100 µM
XF 498 CNS
  TGI: > 100 µM

## CC(C)c1ccc2c(c1)CC[C@@H]1[C@@](C)(C(=O)O)CCC[C@]21C
MDA-MB-231 breast
  GI50: 1.31 µM
  TGI: 6.04 µM
DU-145 prostate
  GI50: 4.39 µM
  TGI: 19.6 µM

## COc1ccc(-n2cc(-c3cc(OC)c(OC)c(OC)c3)c(C(=O)C(F)(F)F)c2C)cc1
MDA-MB-231 breast
  GI50: > 100 µM
  TGI: > 100 µM
DU-145 prostate
  GI50: > 100 µM
  TGI: > 100 µM

## O/N=C/C1C(OCc2ccccc2)C(OCc2ccccc2)C(OCc2ccccc2)CN1Cc1ccccc1 (stereo unspecified)
MDA-MB-231 breast
  TGI: 93.7 µM
MDA-N
  TGI: 39.3 µM and > 100 µM
DU-145 prostate
  TGI: > 100 µM

## CN(C)N=Nc1ccc(NC=O)cc1
MDA-MB-231 breast
  TGI: > 100 µM
MDA-N
  TGI: > 100 µM
DU-145 prostate
  TGI: > 100 µM

## CC(C)N(C(=O)C12C3C4C5(C#N)C3C1(C#N)C5C42I)C(C)C (stereo unspecified)
DMS 114 small cell lung
  TGI: > 64.5 µM
RXF-631 renal
  TGI: > 100 µM
DLD-1 colon
  TGI: > 60.9 µM
XF 498 CNS
  TGI: > 100 µM

## CCCCCCCCCCCCCC1=NC(C)(C)CN1C(C)C
MDA-MB-231 breast
  GI50: 1.52 µM
  TGI: 2.89 µM
DU-145 prostate
  GI50: 1.7 µM
  TGI: 3.06 µM

## COc1ccc2c(c1)CCCC(Br)C2=O (stereo unspecified)
MDA-MB-231 breast
  TGI: 10.9 µM
MDA-N
  TGI: 9.21 µM
DU-145 prostate
  TGI: 44.9 µM

## C=C(CNCc1ccccc1)c1ccc(C(=O)Nc2ccccc2N)cc1
MDA-MB-231 breast
  GI50: 13.2 µM
  TGI: 54.5 µM
DU-145 prostate
  GI50: 5.05 µM
  TGI: > 100 µM

## CCCCCCCCCCCCOC1C(C(COC2OC(C3COC(C)(C)O3)C3OC(C)(C)OC23)NC(=O)Nc2ccc(C(=O)O)cc2)OC2OC(C)(C)OC21 (stereo unspecified)
MDA-MB-231 breast
  GI50: 1.99 µM
  TGI: 4.98 µM
DU-145 prostate
  GI50: 3.07 µM
  TGI: 9.79 µM
